27 compounds from patent US11661426B2, “Imidazole-containing inhibitors of ALK2 kinase” (BioCryst Pharmaceuticals, Inc., priority 2017, dated 2023) can be followed below.

SMILES strings stand for the structures.

ALK2, sequence (Q04771 21-509): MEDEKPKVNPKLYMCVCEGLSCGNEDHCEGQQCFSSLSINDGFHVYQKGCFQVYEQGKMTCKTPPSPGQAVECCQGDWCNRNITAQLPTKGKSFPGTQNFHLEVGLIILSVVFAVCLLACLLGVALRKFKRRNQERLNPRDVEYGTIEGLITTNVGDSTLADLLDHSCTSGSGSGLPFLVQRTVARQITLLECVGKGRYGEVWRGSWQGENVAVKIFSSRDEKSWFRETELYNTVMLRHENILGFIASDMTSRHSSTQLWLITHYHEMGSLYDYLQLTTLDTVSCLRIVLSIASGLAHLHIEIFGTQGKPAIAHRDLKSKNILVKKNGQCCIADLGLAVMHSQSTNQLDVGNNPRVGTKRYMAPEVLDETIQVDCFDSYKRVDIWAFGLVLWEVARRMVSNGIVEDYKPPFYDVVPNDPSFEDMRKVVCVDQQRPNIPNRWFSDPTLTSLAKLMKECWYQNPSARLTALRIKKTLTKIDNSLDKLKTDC

For the assay, the target named is ALK2 (Homo sapiens (Human), UniProt Q04771). The assay is described as follows: ALK2 inhibition, LanthaScreen Eu Kinase Binding Assay (ThermoFisher Scientific / Life Technologies). The note with it: read-out: Measured Ki (IC50) Value for Compounds: IC50. On the procedure:
Biochemical assays to measure the inhibitory effects of the compounds were performed by ThermoFisher Scientific (Life Technologies). ALK2 inhibition was tested using LanthaScreen™ Eu Kinase Binding Assay screening protocol.
Take `OC[C@@H]1CCCN1c1nc(Nc2cn(-c3ccnc4ccsc34)cn2)c2cccn2n1` [Compound 443e, (S)-(1-(4-((1-(thieno[3,2-b]pyridin-7-yl)-1H-imidazol-4-yl)amino)pyrrolo[2,1-f][1,2,4]triazin-2-yl)pyrrolidin-2-yl)methanol]: the IC50 is less than 0.1 µM. For the compound `COc1cc(-n2cnc(Nc3nc(N4CCC[C@H]4CO)c4c(C)nn([C@H]5C[C@@H](N)C5)c4n3)c2)cc(OC)c1OC` [Compound 444c, ((S)-1-(1-((cis)-3-aminocyclobutyl)-3-methyl-6-((1-(3,4,5-trimethoxyphenyl)-1H-imidazol-4-yl)amino)-1H-pyrazolo[3,4-d]pyrimidin-4-yl)pyrrolidin-2-yl)methanol], the IC50 is less than 0.1 µM.

In the case of `COc1cc(-n2cnc(Nc3nc(N4CCC[C@H]4CO)c4c(C)nn([C@H]5C[C@H](N)C5)c4n3)c2)cc(OC)c1OC` [Compound 445c, ((S)-1-(1-((trans)-3-aminocyclobutyl)-3-methyl-6-((1-(3,4,5-trimethoxyphenyl)-1H-imidazol-4-yl)amino)-1H-pyrazolo[3,4-d]pyrimidin-4-yl)pyrrolidin-2-yl)methanol], the IC50 was less than 0.1 µM. Under `COc1cc(-n2cnc(Nc3nc(N4CCC[C@H]4CO)c4c(C)nn(C5CCOC5)c4n3)c2)cc(OC)c1OC` (stereo partly drawn) [Compound 446c, ((2S)-1-(3-methyl-1-(tetrahydrofuran-3-yl)-6-((1-(3,4,5-trimethoxyphenyl)-1H-imidazol-4-yl)amino)-1H-pyrazolo[3,4-d]pyrimidin-4-yl)pyrrolidin-2-yl)methanol] stands less than 0.1 µM; under `COc1cc(-n2cnc(Nc3nc(N4CCC[C@H]4CO)c4c(C)nn([C@H]5CC[C@@H](O)CC5)c4n3)c2)cc(OC)c1OC` [Compound 447c, (cis)-4-(4-((S)-2-(hydroxymethyl)pyrrolidin-1-yl)-3-methyl-6-((1-(3,4,5-trimethoxyphenyl)-1H-imidazol-4-yl)amino)-1H-pyrazolo[3,4-d]pyrimidin-1-yl)cyclohexanol], less than 0.1 µM.

For `OC[C@@H]1CCCN1c1nc(Nc2cn(-c3ccnc4ccccc34)cn2)c2cccn2n1` [Compound 448e, (S)-(1-(4-((1-(quinolin-4-yl)-1H-imidazol-4-yl)amino)pyrrolo[2,1-f][1,2,4]triazin-2-yl)pyrrolidin-2-yl)methanol], the IC50 is less than 0.1 µM. For `OC[C@@H]1CCCN1c1nc(Nc2cn(-c3cn(C4CC4)cn3)cn2)c2cccn2n1` [Compound 449d, (S)-(1-(4-((1′-cyclopropyl-1′H-[1,4′-biimidazol]-4-yl)amino)pyrrolo[2,1-f][1,2,4]triazin-2-yl)pyrrolidin-2-yl)methanol], the IC50 is less than 0.1 µM. Then `OC[C@@H]1CCCN1c1nc(Nc2cn(-c3cn(C4CCC4)cn3)cn2)c2cccn2n1` [Compound 450d, (S)-(1-(4-((1′-cyclobutyl-1′H-[1,4′-biimidazol]-4-yl)amino)pyrrolo[2,1-f][1,2,4]triazin-2-yl)pyrrolidin-2-yl)methanol], with 0.1 to 1 µM; and `OC[C@@H]1CCCN1c1nc(Nc2cn(-c3cn(C4CCCC4)cn3)cn2)c2cccn2n1` [Compound 451d, (S)-(1-(4-((1′-cyclopentyl-1′H-[1,4′-biimidazol]-4-yl)amino)pyrrolo[2,1-f][1,2,4]triazin-2-yl)pyrrolidin-2-yl)methanol], with 0.1 to 1 µM. Take `OC[C@@H]1CCCN1c1nc(Nc2cn(-c3cn(C4CCCCC4)cn3)cn2)c2cccn2n1` [Compound 452d, (S)-(1-(4-((1′-cyclohexyl-1′H-[1,4′-biimidazol]-4-yl)amino)pyrrolo[2,1-f][1,2,4]triazin-2-yl)pyrrolidin-2-yl)methanol]: the IC50 was in the range of 0.1 to 1 µM.

With `COc1cc(-n2cnc(Nc3nc(N4CCC[C@H]4CO)nc4c3cnn4CC3CCCCC3)c2)cc(OC)c1OC` [Compound 453d, (S)-(1-(1-(cyclohexylmethyl)-4-((1-(3,4,5-trimethoxyphenyl)-1H-imidazol-4-yl)amino)-1H-pyrazolo[3,4-d]pyrimidin-6-yl)pyrrolidin-2-yl)methanol], the IC50 is less than 0.1 µM.

Take `COc1cc(-n2cnc(Nc3nc(N4CCC[C@H]4CO)c4c(C)nn(C5CCOCC5)c4n3)c2)cc(OC)c1OC` [Compound 454c, (S)-(1-(3-methyl-1-(tetrahydro-2H-pyran-4-yl)-6-((1-(3,4,5-trimethoxyphenyl)-1H-imidazol-4-yl)amino)-1H-pyrazolo[3,4-d]pyrimidin-4-yl)pyrrolidin-2-yl)methanol]: the IC50 is less than 0.1 µM. Under `OC[C@@H]1CCCN1c1nc(Nc2nccs2)c2cccn2n1` [Compound 455c, (S)-(1-(4-(thiazol-2-ylamino)pyrrolo[2,1-f][1,2,4]triazin-2-yl)pyrrolidin-2-yl)methanol] stands 0.1 to 1 µM; under `COC(=O)c1cnc(Nc2nc(N3CCC[C@H]3CO)nn3cccc23)s1` [Compound 455d, (S)-methyl 2-((2-(2-(hydroxymethyl)pyrrolidin-1-yl)pyrrolo[2,1-f][1,2,4]triazin-4-yl)amino)thiazole-5-carboxylate], more than 1 µM. As to `COc1cc(-n2cnc(Nc3nc(N4CCC[C@H]4CO)c4c(C)nn(C(C)C)c4n3)c2)cc(OC)c1OC` [Compound 456c, (S)-(1-(1-isopropyl-3-methyl-6-((1-(3,4,5-trimethoxyphenyl)-1H-imidazol-4-yl)amino)-1H-pyrazolo[3,4-d]pyrimidin-4-yl)pyrrolidin-2-yl)methanol], the IC50 is less than 0.1 µM. For the compound `COc1cc(-n2cnc(Nc3nc(N4CCC[C@H]4CO)nc4c3cnn4[C@H]3CC[C@@H](O)CC3)c2)cc(OC)c1OC` [Compound 457c, (cis)-4-(6-((S)-2-(hydroxymethyl)pyrrolidin-1-yl)-4-((1-(3,4,5-trimethoxyphenyl)-1H-imidazol-4-yl)amino)-1H-pyrazolo[3,4-d]pyrimidin-1-yl)cyclohexanol], the IC50 is less than 0.1 µM.

With `CCn1nc(C)c2c(N3CCC[C@H]3CO)nc(Nc3cn(-c4cc(OC)c(OC)c(OC)c4)cn3)nc21` [Compound 458c, (S)-(1-(1-ethyl-3-methyl-6-((1-(3,4,5-trimethoxyphenyl)-1H-imidazol-4-yl)amino)-1H-pyrazolo[3,4-d]pyrimidin-4-yl)pyrrolidin-2-yl)methanol], the IC50 was less than 0.1 µM. With `COc1cc(-n2cnc(Nc3nc(N4CCC[C@H]4CO)c4c(C)nn(C5CC(F)(F)C5)c4n3)c2)cc(OC)c1OC` [Compound 459c, (S)-(1-(1-(3,3-difluorocyclobutyl)-3-methyl-6-((1-(3,4,5-trimethoxyphenyl)-1H-imidazol-4-yl)amino)-1H-pyrazolo[3,4-d]pyrimidin-4-yl)pyrrolidin-2-yl)methanol], the IC50 is less than 0.1 µM. Regarding `COc1cc(-n2cnc(Nc3nc(N4CCC[C@@H]4CO)c4c(C)nn(C5CCC5)c4n3)c2)cc(OC)c1OC` [Compound 460d, (R)-(1-(1-cyclobutyl-3-methyl-6-((1-(3,4,5-trimethoxyphenyl)-1H-imidazol-4-yl)amino)-1H-pyrazolo[3,4-d]pyrimidin-4-yl)pyrrolidin-2-yl)methanol], the IC50 was less than 0.1 µM. Then `COc1cc(-c2cnc(Nc3nc(N4CCC[C@H]4CO)nn4cccc34)s2)cc(OC)c1OC` [Compound 461c, (S)-(1-(4-((5-(3,4,5-trimethoxyphenyl)thiazol-2-yl)amino)pyrrolo[2,1-f][1,2,4]triazin-2-yl)pyrrolidin-2-yl)methanol], with less than 0.1 µM; and `COc1cc(-n2cnc(Nc3nc(N4CCC[C@H]4CO)nc4c3ccn4CC3CCCCC3)c2)cc(OC)c1OC` [Compound 462c, (S)-(1-(7-(cyclohexylmethyl)-4-((1-(3,4,5-trimethoxyphenyl)-1H-imidazol-4-yl)amino)-7H-pyrrolo[2,3-d]pyrimidin-2-yl)pyrrolidin-2-yl)methanol], with less than 0.1 µM; and `COc1cc(-n2cnc(Nc3nc(N4CCC[C@H]4CO)c4c(C)nn(CC5CC5)c4n3)c2)cc(OC)c1OC` [Compound 463c, (S)-(1-(1-(cyclopropylmethyl)-3-methyl-6-((1-(3,4,5-trimethoxyphenyl)-1H-imidazol-4-yl)amino)-1H-pyrazolo[3,4-d]pyrimidin-4-yl)pyrrolidin-2-yl)methanol], with less than 0.1 µM. Take `COc1cc(-n2cnc(Nc3nc(N4CCC[C@H]4CO)c4cnn(C5CCC5)c4n3)c2)cc(OC)c1OC` [Compound 464d, (S)-(1-(1-cyclobutyl-6-((1-(3,4,5-trimethoxyphenyl)-1H-imidazol-4-yl)amino)-1H-pyrazolo[3,4-d]pyrimidin-4-yl)pyrrolidin-2-yl)methanol]: the IC50 is less than 0.1 µM. Then `COc1cc(-n2cnc(Nc3nc(N4CCC[C@H]4CO)c4c(C)nn([C@H]5C[C@H](O)C5)c4n3)c2)cc(OC)c1OC` [Compound 465c, (trans)-3-(4-((S)-2-(hydroxymethyl)pyrrolidin-1-yl)-3-methyl-6-((1-(3,4,5-trimethoxyphenyl)-1H-imidazol-4-yl)amino)-1H-pyrazolo[3,4-d]pyrimidin-1-yl)cyclobutanol], with less than 0.1 µM; and `COc1cc(-n2cnc(Nc3nc(N4CCC[C@H]4CO)c4c(C)nn([C@H]5C[C@@H](O)C5)c4n3)c2)cc(OC)c1OC` [Compound 466c, (cis)-3-(4-((S)-2-(hydroxymethyl)pyrrolidin-1-yl)-3-methyl-6-((1-(3,4,5-trimethoxyphenyl)-1H-imidazol-4-yl)amino)-1H-pyrazolo[3,4-d]pyrimidin-1-yl)cyclobutanol], with less than 0.1 µM. Under `O=C(c1cnc(Nc2nc(N3CCC[C@H]3CO)nn3cccc23)s1)N1CCC[C@H]1CO` [Compound 467c, ((S)-2-(hydroxymethyl)pyrrolidin-1-yl)(2-((2-((S)-2-(hydroxymethyl)pyrrolidin-1-yl)pyrrolo[2,1-f][1,2,4]triazin-4-yl)amino)thiazol-5-yl)methanone] stands more than 1 µM; under `CNC(=O)c1cc(C2CC2)cc(-n2cnc(Nc3nc(N4CCC[C@H]4CO)nn4cccc34)c2)c1` [Compound 468g, (S)-3-cyclopropyl-5-(4-((2-(2-(hydroxymethyl)pyrrolidin-1-yl)pyrrolo[2,1-f][1,2,4]triazin-4-yl)amino)-1H-imidazol-1-yl)-N-methylbenzamide], more than 1 µM.
